What was measured:
PXR = system: PXR; set-up: method as in PMID 23600156; conditions: previous work of the authors; cited from earlier work
CYP3A4 [1] = assay: Cocktail method: pharmacokinetics of probe drug midazolam after P. ginseng; conditions: rats, ketoconazole 40 mg·kg^−1 intraperitoneal 3 days, midazolam 10 mg·kg^−1 caudal vein
CYP2E1 = target: T1, CYP2E1 (Homo sapiens, UniProt P05181); assay: Specific inhibitor method in HLMs: diethyldithiocarbonate; format: in vitro ADME; conditions: alkaloid 20 μM, DDTC 1 μM (CYP2E1), 37°C 60 min, P > 0.05
T1 construct: tissue Rild-biotech X008067; host or cells: human liver microsomes
T1 sequence (P05181 whole entry): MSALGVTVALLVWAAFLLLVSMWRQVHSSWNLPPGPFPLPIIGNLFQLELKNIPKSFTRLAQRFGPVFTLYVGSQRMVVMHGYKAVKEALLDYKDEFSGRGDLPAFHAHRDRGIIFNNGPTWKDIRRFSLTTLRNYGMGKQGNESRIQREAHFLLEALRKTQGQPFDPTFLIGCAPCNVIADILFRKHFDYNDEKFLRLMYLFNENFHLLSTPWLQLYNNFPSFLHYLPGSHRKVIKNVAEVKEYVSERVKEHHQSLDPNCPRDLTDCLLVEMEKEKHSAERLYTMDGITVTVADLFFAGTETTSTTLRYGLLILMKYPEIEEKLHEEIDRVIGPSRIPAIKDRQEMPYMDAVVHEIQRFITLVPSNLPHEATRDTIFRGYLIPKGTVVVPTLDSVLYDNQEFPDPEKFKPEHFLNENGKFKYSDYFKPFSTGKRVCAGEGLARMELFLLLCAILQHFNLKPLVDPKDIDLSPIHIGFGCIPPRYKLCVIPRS
Experimental: (§1) To screen the CYP isoforms for aconitine, mesaconitine, and hypaconitine metabolism, we used known inhibitors of the metabolism of aconitine, mesaconitine, and hypaconitine in HLMs. ANF (CYP1A2: 1 μM; CAS: […]), SPE (CYP2C9: 1 μM; CAS: 526-08-9), DDTC (CYP2E1: 1 μM; CAS: 148-18-5), and KEN (CYP3A4: 1 μM; CAS: 65277-42-1) were all from EFEBIO Co., Ltd., which were incubated separately with aconitine, mesaconitine, and hypaconitine (20 μM), HLMs, and NADPH under the same incubation conditions as mentioned above. […] The hepatic metabolism rate of the incubation solution with no inhibitor was used as the negative control. The HLM (Rild-biotech, shanghai, China, X008067 ) mixtures were incubated at 37°C for 60 min. NADPH was preincubated for 5 min before it was added to the system. Precooled acetonitrile/methanol (800 μL, 1:1, v/v) was added to stop the incubation. […] Aconitine, mesaconitine, and hypaconitine standards of different concentrations were added to the incubation system to obtain the standard curve.

CYP3A4 [2] = target: T2, CYP3A4 (Homo sapiens, UniProt P08684); assay: Specific inhibitor method in HLMs: ketoconazole; format: in vitro ADME; set-up: tissue Rild-biotech X008067; host or cells: human liver microsomes; conditions: alkaloid 20 μM, KEN 1 μM (specific inhibitor for CYP3A), 37°C 60 min, n = 3
Experimental: as §1
Target sequence in this assay (P08684 whole entry): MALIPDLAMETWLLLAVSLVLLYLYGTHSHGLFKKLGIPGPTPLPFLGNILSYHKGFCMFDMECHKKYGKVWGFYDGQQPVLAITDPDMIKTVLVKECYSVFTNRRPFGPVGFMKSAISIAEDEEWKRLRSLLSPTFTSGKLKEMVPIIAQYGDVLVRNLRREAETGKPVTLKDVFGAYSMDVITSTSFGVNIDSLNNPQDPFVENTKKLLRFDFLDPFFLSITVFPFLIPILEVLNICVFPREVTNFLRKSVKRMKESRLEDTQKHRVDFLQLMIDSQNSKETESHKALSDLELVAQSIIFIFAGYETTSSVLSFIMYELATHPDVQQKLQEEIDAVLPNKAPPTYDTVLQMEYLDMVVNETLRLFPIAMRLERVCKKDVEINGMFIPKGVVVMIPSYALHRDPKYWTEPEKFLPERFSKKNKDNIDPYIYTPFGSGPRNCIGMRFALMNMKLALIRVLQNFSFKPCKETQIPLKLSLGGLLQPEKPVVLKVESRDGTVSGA

CYP3A4 [3] = target: T2, CYP3A4; assay: Kinetic analysis in recombinant human CYP3A4; format: in vitro ADME; set-up: purchased Corning 456202; host or cells: baculovirus infected insect cells (BTI-TN-5B1-4); conditions: for in vitro mean intrinsic clearance rate by CYP3A4: CLint = Vmax/KM
Source text: (§2) Recombinant human cytochrome P450 enzymes were obtained from Corning (USA, CYP3A4:456202; CYP1A2:456203; CYP2C9:456218; CYP2E1:456206). The activity were catalyzed by CYP3A4/CYP1A2/CYP2C9/CYP2E1, which were expressed from human CYP3A4/CYP1A2/CYP2C9/CYP2E1 cDNA, respectively, using a baculovirus expression system. Baculovirus infected insect cells (BTI-TN-5B1-4) were used to prepare these microsomes. These microsomes also contain cDNA-expressed humans P450 reductase and human cytochrome b5. A microsome preparation using wild type virus (Catalog No. 456201) was used as a control for native activities.
(§3) The kinetic parameters for the metabolism of aconitine, mesaconitine, and hypaconitine were determined by incubating increasing concentrations of aconitine, mesaconitine, and hypaconitine (5, 10, 20, and 40 μM) at 37°C for 90min with recombinant human CYP isoforms and NADPH under the incubation conditions described above. Precooled acetonitrile/methanol (800 μL, 1:1, v/v) was added to stop the incubation.
(§4) The compound reaction velocity (V) is expressed as V = (C0 – Ct)/T/Cp, where C0 and Ct are the initial and final concentrations of aconitine, mesaconitine, or hypaconitine in the incubation solution, respectively, T is the incubation time (min), and Cp is the protein concentration (mg·mL^−1 or nmol). The mean intrinsic clearance rate (CLint) for the in vitro incubation was estimated using Vmax/KM, where Vmax is the maximum velocity and KM is the Michaelis constant. All values are expressed as the mean ± standard deviation (SD).
Target sequence in this assay (P08684 2-503 limits assumed): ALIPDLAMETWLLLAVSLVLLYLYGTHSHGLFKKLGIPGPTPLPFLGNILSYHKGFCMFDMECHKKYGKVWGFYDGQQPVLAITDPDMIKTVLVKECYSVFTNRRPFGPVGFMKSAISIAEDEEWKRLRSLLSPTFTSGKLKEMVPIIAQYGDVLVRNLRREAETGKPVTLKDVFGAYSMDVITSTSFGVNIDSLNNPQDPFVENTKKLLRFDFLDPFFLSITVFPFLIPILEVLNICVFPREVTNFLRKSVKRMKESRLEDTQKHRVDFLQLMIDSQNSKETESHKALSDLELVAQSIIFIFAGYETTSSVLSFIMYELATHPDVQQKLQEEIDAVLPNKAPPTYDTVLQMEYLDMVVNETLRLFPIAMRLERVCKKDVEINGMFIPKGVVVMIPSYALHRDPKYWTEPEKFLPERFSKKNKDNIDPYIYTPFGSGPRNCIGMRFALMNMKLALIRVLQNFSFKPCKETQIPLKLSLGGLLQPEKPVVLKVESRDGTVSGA

CYP3A4 [4] = system: CYP3A4; set-up: method as in PMID 23600156; conditions: concentration-dependent manner; cited from earlier work
recombinant human CYP1A2 = target: T3, recombinant human CYP1A2 (Homo sapiens, UniProt P05177); assay: Kinetic analysis in recombinant human CYP1A2; format: in vitro ADME; conditions: substrate 5, 10, 20, 40 μM, 37°C 90 min, n = 3
T3 construct: purchased Corning 456203; host or cells: baculovirus infected insect cells (BTI-TN-5B1-4)
T3 sequence (P05177 2-516 limits assumed): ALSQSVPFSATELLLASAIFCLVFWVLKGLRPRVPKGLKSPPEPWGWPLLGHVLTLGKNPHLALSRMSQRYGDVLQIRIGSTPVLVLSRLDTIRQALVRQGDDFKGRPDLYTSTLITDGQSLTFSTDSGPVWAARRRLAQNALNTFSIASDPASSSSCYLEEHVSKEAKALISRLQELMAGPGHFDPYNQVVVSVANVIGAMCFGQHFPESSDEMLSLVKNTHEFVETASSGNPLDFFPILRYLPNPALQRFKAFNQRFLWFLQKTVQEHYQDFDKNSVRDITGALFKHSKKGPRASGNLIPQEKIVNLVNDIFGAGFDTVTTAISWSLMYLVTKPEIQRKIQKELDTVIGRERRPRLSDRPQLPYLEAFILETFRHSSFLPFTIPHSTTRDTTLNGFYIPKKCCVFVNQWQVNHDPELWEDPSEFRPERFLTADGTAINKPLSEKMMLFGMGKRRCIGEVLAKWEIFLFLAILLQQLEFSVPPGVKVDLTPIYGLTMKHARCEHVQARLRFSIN
Source text: as §2, §3
as §4, with “The mean intrinsic clearance rate (CLint) for the in vitro incubation was estimated using Vmax/KM, where Vmax is the maximum velocity and KM is the Michaelis constant.” left out

[5] = recombinant human CYP3A4, substrate 5, 10, 20, 40 μM, 37°C 90 min, n = 3

Compound: CC(C)=CCCC(C)(O)[C@H]1CC[C@]2(C)[C@@H]1[C@H](O)C[C@@H]1[C@@]3(C)CC[C@H](O)C(C)(C)[C@@H]3CC[C@]12C (stereo in doubt) [protopanaxadiol]
- Effect on PXR (PXR): no obvious effects

Compound: CC(C)=CCC[C@](C)(O[C@@H]1O[C@H](CO)[C@@H](O)[C@H](O)[C@H]1O)[C@H]1CC[C@]2(C)[C@@H]1[C@H](O)C[C@@H]1[C@@]3(C)CC[C@H](O[C@@H]4O[C@H](CO)[C@@H](O)[C@H](O)[C@H]4O)C(C)(C)[C@@H]3CC[C@]12C [Ginsenoside F2]
- Effect on PXR (PXR): moderate inductive effects

Compound: CC(=O)N1CCN(c2ccc(OCC3COC(Cn4ccnc4)(c4ccc(Cl)cc4Cl)O3)cc2)CC1 (stereo not drawn) [Ketoconazole]
- AUC(0-t) of midazolam (CYP3A4 [1]; control 2.23 ± 0.64): 4.19 ± 0.14^∗∗ mg^.L^-1.h
- AUC(0-∞) of midazolam (CYP3A4 [1]; control 2.30 ± 0.59): 4.25 ± 0.15^∗∗ mg^.L^-1.h
- CLz of midazolam (CYP3A4 [1]; control 4.66 ± 1.43): 2.36 ± 0.08^∗∗ L^.h^-1.kg^−1
- Cmax of midazolam (CYP3A4 [1]; control 4.84 ± 1.89): 10.48 ± 0.63^∗∗ mg^.L^−1

Compound: CC1(C)CCC[C@](C)([C@H]2CC[C@]3(C)[C@@H]2[C@H](O)C[C@@H]2[C@@]4(C)CC[C@H](O)C(C)(C)[C@@H]4[C@@H](O)C[C@]23C)O1 [Panaxotriol]
- Effect on PXR (PXR): inhibitory effects

Compound: CC(C)=CCC[C@](C)(O)[C@H]1CC[C@]2(C)[C@@H]1[C@H](O)C[C@@H]1[C@@]3(C)CC[C@H](O[C@@H]4O[C@H](CO)[C@@H](O)[C@H](O)[C@H]4O[C@@H]4O[C@H](CO)[C@@H](O)[C@H](O)[C@H]4O)C(C)(C)[C@@H]3CC[C@]12C [Rg3]
- Effect on PXR (PXR): no obvious effects

Compound: CC(C)=CCC[C@](C)(O)[C@H]1CC[C@]2(C)[C@@H]1[C@H](O)C[C@@H]1[C@@]3(C)CC[C@H](O[C@@H]4O[C@H](CO)[C@@H](O)[C@H](O)[C@H]4O)C(C)(C)[C@@H]3CC[C@]12C [Rh2]
- Effect on PXR (PXR): no obvious effects

Compound: CCN1C[C@]2(COC)[C@H](O)C[C@H](OC)[C@@]34[C@@H]5C[C@@]6(O)[C@H](OC(=O)c7ccccc7)[C@@H]5[C@@](OC(C)=O)([C@@H]([C@H](OC)[C@H]23)[C@@H]14)[C@@H](O)[C@@H]6OC [aconitine]
- Hepatic metabolism rate after incubation with DDTC, compared with control (CYP2E1): no significant change
- Hepatic metabolism rate when incubated with KEN, compared with negative control (CYP3A4 [2]): 60.37 ± 5.01%
- Km at 90 min (CYP3A4 [3]; human): 10.1 ± 3.26 µM
- in vitro mean intrinsic clearance rate by CYP3A4 (CYP3A4 [3]; recombinant human CYP3A4): 0.0119 mL·nmol CYP^−1·min^−1
- Vmax of CYP3A4 (CYP3A4 [3]; [5]): 0.12 ± 0.01 nmol·mg protein^−1·min^−1

Compound: CC(C)=CCC[C@](C)(O[C@@H]1O[C@H](CO[C@@H]2OC[C@@H](O)[C@H](O)[C@H]2O)[C@@H](O)[C@H](O)[C@H]1O)[C@H]1CC[C@]2(C)[C@@H]1[C@H](O)C[C@@H]1[C@@]3(C)CC[C@H](O[C@@H]4O[C@H](CO)[C@@H](O)[C@H](O)[C@H]4O[C@@H]4O[C@H](CO)[C@@H](O)[C@H](O)[C@H]4O)C(C)(C)[C@@H]3CC[C@]12C [ginsenoside Rb3]
- Effect on PXR (PXR): inhibitory effects

Compound: CC(C)=CCC[C@](C)(O[C@@H]1O[C@H](CO)[C@@H](O)[C@H](O)[C@H]1O)[C@H]1CC[C@]2(C)[C@@H]1[C@H](O)C[C@@H]1[C@@]3(C)CC[C@H](O)C(C)(C)[C@@H]3[C@@H](O[C@@H]3O[C@H](CO)[C@@H](O)[C@H](O)[C@H]3O)C[C@]12C [ginsenoside Rg1]
- Effect on PXR (PXR): inhibitory effects
- CYP3A4 mRNA expression (CYP3A4 [4]): downregulated

Compound: CC(C)=CCC[C@](C)(O)[C@H]1CC[C@]2(C)[C@@H]1[C@H](O)C[C@@H]1[C@@]3(C)CC[C@H](O)C(C)(C)[C@@H]3[C@@H](O[C@@H]3O[C@H](CO)[C@@H](O)[C@H](O)[C@H]3O[C@@H]3O[C@@H](C)[C@H](O)[C@@H](O)[C@H]3O)C[C@]12C [ginsenoside Rg2]
- Effect on PXR (PXR): inhibitory effects

Compound: COC[C@@]12CC[C@H](OC)[C@]34C(C([C@H](OC)[C@H]13)[C@]1(OC(C)=O)[C@H]3[C@@H](OC(=O)c5ccccc5)[C@](O)(C[C@H]34)[C@@H](OC)[C@@H]1O)N(C)C2 [hypaconitine]
- Hepatic metabolism rate after incubation with DDTC, compared with control (CYP2E1): no significant change
- Hepatic metabolism rate when incubated with KEN, compared with negative control (CYP3A4 [2]): 10.11 ± 6.19%
- in vitro mean intrinsic clearance rate by CYP3A4 (CYP3A4 [3]; recombinant human CYP3A4): 0.0091 mL·nmol CYP^−1·min^−1

Compound: COC[C@]12CN(C)[C@@H]3[C@@H]4[C@H](OC)[C@H]1[C@@]3([C@@H](OC)C[C@H]2O)[C@@H]1C[C@@]2(O)[C@H](OC(=O)c3ccccc3)[C@@H]1[C@]4(OC(C)=O)[C@@H](O)[C@@H]2OC [mesaconitine]
- Hepatic metabolism rate after incubation with DDTC, compared with control (CYP2E1): no significant change
- Vmax of CYP1A2 (recombinant human CYP1A2): 0.27 ± 6.57 nmol·mg protein^−1·min^−1
- Hepatic metabolism rate when incubated with KEN, compared with negative control (CYP3A4 [2]): 21.67 ± 19.64%
- in vitro mean intrinsic clearance rate by CYP3A4 (CYP3A4 [3]; recombinant human CYP3A4): 0.0056 mL·nmol CYP^−1·min^−1
- Km (CYP3A4 [3]; [5]): 131 ± 99.7 µM
- Vmax of CYP3A4 (CYP3A4 [3]; [5]): 0.73 ± 0.44 nmol·mg protein^−1·min^−1

Compound: CC(C)=CCC[C@](C)(O)[C@H]1CC[C@]2(C)[C@@H]1[C@H](O)C[C@@H]1[C@@]3(C)CC[C@H](O)C(C)(C)[C@@H]3[C@@H](O)C[C@]12C [protopanaxatriol]
- Effect on PXR (PXR): moderate inductive effects

Compound: ginsenoside Rf1
- Effect on PXR (PXR): no obvious effects

Compound: pseudoginsenoside F11
- Effect on PXR (PXR): inhibitory effects
